# Test system: 422866-222-R5-J1-PDC complex spheroid viability
# Test: Anticancer human tumor 422866-222-R5-J1-PDC patient-derived pancreatic adenocarcinoma cell line growth inhibition [POLQ]
# Settings: for IC50: curve of first compound; for viability, T/C: stronger effect = lower value
# Experimental: Multicellular complex tumor spheroid response to Polymerase (POL) inhibitors (novobiocin, ART-558, RP6685) in combination with a variety of drugs and investigational agents in selected tumor cell lines
# The POL inhibitors (novobiocin, ART-558, and RP6685) were evaluated both individually and in combination with standard of care and investigational anticancer small molecules within a complex spheroid model of solid tumors. . Complex spheroids include a stromal component modeled by human endothelial cells (HUVEC) and fibroblasts modeled by human mesenchymal stem cells (MSCs). The concentration ranges selected for each drug and investigational agent were based upon clinically achievable concentrations if the clinical Cmax of the agent was known.
# Compounds. The drugs and investigational agents: novobiocin (NSC847541), ART-558 (NSC835418), RP-6685 (NSC848927), peposertib (NSC802822), ceralasertib (NSC780249), elimusertib (NSC800525), camonsertib (NSC841442), AZD-1390 (NSC803789), olaparib (NSC753686), talazoparib (NSC767125), rucaparib (NSC756644), sotorasib (NSC818433), MRTX-1133 (NSC836407), SN-38 (NSC673596), topotecan (NSC609699), epotoside (NSC141540), doxorubicin (NSC123127), gemcitabine (NSC613327), 5-fluorouracil (NSC19893), paclitaxel (NSC125973), vemurafenib (NSC761431), MSA-2 (NSC828583), SN-011 (NSC837082), adavosertib (NSC754352), prexasertib (NSC758257), carboplatin (NSC241240) and oxaliplatin (NSC266046), were obtained from the National Cancer Institute (NCI) Developmental Therapeutics Program Chemical Repository (21). The FDA-approved anticancer drug set is available from the Developmental Therapeutics Program at https://dtp.cancer.gov/organization/dscb/obtaining/. […] The stock solutions were prepared in dimethyl sulfoxide (DMSO, Sigma-Aldrich, St. Louis, MO, cat. D2650), except for the platinum compounds which were prepared in saline (Quality Biological, Gaithersburg, MD, cat. 114-055-101), at 800-fold the tested concentration and stored at -70 degrees C prior to their use. All drugs and investigational agents were tested over a range starting from a high concentration at or near the clinical Cmax and decreasing in half-log increments. If the clinical Cmax for an agent had not been determined, the highest concentration tested was 10 microM, except for SN-38, which was tested at a high concentration of 1 microM.
# Cell Culture. All cells were maintained in an incubator at 37 degrees C and 5% CO2 with 95% humidity. The PDC lines were cultured according to standard operating procedures established by the NCI PDMR (https://pdmr.cancer.gov). Table 3 of the manuscript, lists the cell lines along with the number of the three cell types plated to form the mct-spheroids and media for tumor cell growth. After thawing, all PDC lines, except 997537-175-T-J1-PDC and 415267-285-R-J2-PDC, were cultured in Matrigel-coated flasks prepared with a working solution of 1X Ham's F-12 nutrient mix, without supplementation (Thermo Fisher Scientific, cat. 11765054), 100 U/mL penicillin-streptomycin (Thermo Fisher Scientific, cat. 15140122), and 2.5% Matrigel (Corning Inc., Corning, NY, cat. 354248) for the first three passages. The two PDC lines 997537-175-T-J1-PDC and 415267-285-R-J2-PDC were cultured on uncoated flasks. The 857933-349-R-J2-PDC line was cultured in 6C/Colon 1B media containing advanced DMEM/F-12 (Thermo Fisher Scientific, cat. 12634028), 10 mM HEPES (Thermo Fisher Scientific, cat. 15630080), 1X GlutaMAX supplement (Thermo Fisher Scientific, cat. 35050061), 0.1 mg/mL primocin (InvivoGen, San Diego, CA, cat. ant-pm-2), 10% defined fetal bovine serum, heat inactivated (HyClone Laboratories Inc., Logan, UT, cat. SH30070.03HI), 50% L-WRN conditioned media (ATCC, cat. CRL-3276), 1.25 mM N-Acetyl-L-cysteine (Sigma-Aldrich, cat. A9165), 10 mM nicotinamide (Sigma-Aldrich, cat. N0636), 1X B-27 supplement (Thermo Fisher Scientific, cat. 17504044), 1X N-2 supplement (Thermo Fisher Scientific, cat. […]
# 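Note: spheroids exposed to compounds for one week before readout.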
# 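Throughout, for viability, T/C: percent of DMSO vehicle wells luminescence so 100% = untreated viability.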
smiles,measurement,setting,value
CC(C)n1c(=O)n(C)c2cnc3cc(F)c(-c4ccc(OCCCN5CCCCC5)nc4)cc3c21 + Nc1ccc(C#CCN(C(=O)Cc2ncc(C(F)(F)F)cc2C(F)(F)F)c2ccc(F)cc2)nn1,IC50,second compound 0.0316 µM,> 10 µM
same,IC50,second compound 0.1 µM,> 10 µM
same,IC50,second compound 0.316 µM,> 10 µM
same,IC50,second compound 1 µM,> 10 µM
same,IC50,second compound 3.16 µM,> 10 µM
same,IC50,second compound 10 µM,9.87 µM
same,"viability, T/C","second compound 0.0316 µM, first compound 0.0316 µM",116%
same,"viability, T/C","second compound 0.0316 µM, first compound 0.1 µM",116%
same,"viability, T/C","second compound 0.0316 µM, first compound 0.316 µM",90.3%
same,"viability, T/C","second compound 0.0316 µM, first compound 1 µM",99.3%
same,"viability, T/C","second compound 0.0316 µM, first compound 3.16 µM",90.7%
same,"viability, T/C","second compound 0.0316 µM, first compound 10 µM",62.2%
same,"viability, T/C","second compound 0.1 µM, first compound 0.0316 µM",88.6%
same,"viability, T/C","second compound 0.1 µM, first compound 0.1 µM",102%
same,"viability, T/C","second compound 0.1 µM, first compound 0.316 µM",97.5%
same,"viability, T/C","second compound 0.1 µM, first compound 1 µM",88.3%
same,"viability, T/C","second compound 0.1 µM, first compound 3.16 µM",82.8%
same,"viability, T/C","second compound 0.1 µM, first compound 10 µM",66.2%
same,"viability, T/C","second compound 0.316 µM, first compound 0.0316 µM",114%
same,"viability, T/C","second compound 0.316 µM, first compound 0.1 µM",109%
same,"viability, T/C","second compound 0.316 µM, first compound 0.316 µM",95.1%
same,"viability, T/C","second compound 0.316 µM, first compound 1 µM",105%
same,"viability, T/C","second compound 0.316 µM, first compound 3.16 µM",71.8%
same,"viability, T/C","second compound 0.316 µM, first compound 10 µM",53.3%
same,"viability, T/C","second compound 1 µM, first compound 0.0316 µM",107%
same,"viability, T/C","second compound 1 µM, first compound 0.1 µM",110%
same,"viability, T/C","second compound 1 µM, first compound 0.316 µM",108%
same,"viability, T/C","second compound 1 µM, first compound 1 µM",91.2%
same,"viability, T/C","second compound 1 µM, first compound 3.16 µM",85.2%
same,"viability, T/C","second compound 1 µM, first compound 10 µM",59.1%
same,"viability, T/C","second compound 3.16 µM, first compound 0.0316 µM",100%
same,"viability, T/C","second compound 3.16 µM, first compound 0.1 µM",105%
same,"viability, T/C","second compound 3.16 µM, first compound 0.316 µM",114%
same,"viability, T/C","second compound 3.16 µM, first compound 1 µM",76.4%
same,"viability, T/C","second compound 3.16 µM, first compound 3.16 µM",71.3%
same,"viability, T/C","second compound 3.16 µM, first compound 10 µM",60.8%
same,"viability, T/C","second compound 10 µM, first compound 0.0316 µM",96.8%
same,"viability, T/C","second compound 10 µM, first compound 0.1 µM",110%
same,"viability, T/C","second compound 10 µM, first compound 0.316 µM",87.9%
same,"viability, T/C","second compound 10 µM, first compound 1 µM",92.5%
same,"viability, T/C","second compound 10 µM, first compound 3.16 µM",94.4%
same,"viability, T/C","second compound 10 µM, first compound 10 µM",49.5%
